According to ChEMBL document CHEMBL1777772, “Synthesis and evaluation of heteroarylalanine diacids as potent and selective neutral endopeptidase inhibitors” (Bioorg Med Chem Lett, 2011):

How the values were obtained:
[1] = molecular target: Angiotensin-converting enzyme (Homo sapiens) (UniProt P12821)
Neprilysin = Neprilysin (Homo sapiens, UniProt P08473)
Description: Inhibition of neutral endopeptidase

[2] = Clearance in iv dosed rat; format: ADME, organism-based; details: in vivo
[3] = Half life in iv dosed rat; format: ADME, organism-based; details: in vivo
[4] = Oral bioavailability in rat; format: ADME, organism-based; details: in vivo

Angiotensin-converting enzyme (Homo sapiens), sequence (P12821 whole entry, looked up): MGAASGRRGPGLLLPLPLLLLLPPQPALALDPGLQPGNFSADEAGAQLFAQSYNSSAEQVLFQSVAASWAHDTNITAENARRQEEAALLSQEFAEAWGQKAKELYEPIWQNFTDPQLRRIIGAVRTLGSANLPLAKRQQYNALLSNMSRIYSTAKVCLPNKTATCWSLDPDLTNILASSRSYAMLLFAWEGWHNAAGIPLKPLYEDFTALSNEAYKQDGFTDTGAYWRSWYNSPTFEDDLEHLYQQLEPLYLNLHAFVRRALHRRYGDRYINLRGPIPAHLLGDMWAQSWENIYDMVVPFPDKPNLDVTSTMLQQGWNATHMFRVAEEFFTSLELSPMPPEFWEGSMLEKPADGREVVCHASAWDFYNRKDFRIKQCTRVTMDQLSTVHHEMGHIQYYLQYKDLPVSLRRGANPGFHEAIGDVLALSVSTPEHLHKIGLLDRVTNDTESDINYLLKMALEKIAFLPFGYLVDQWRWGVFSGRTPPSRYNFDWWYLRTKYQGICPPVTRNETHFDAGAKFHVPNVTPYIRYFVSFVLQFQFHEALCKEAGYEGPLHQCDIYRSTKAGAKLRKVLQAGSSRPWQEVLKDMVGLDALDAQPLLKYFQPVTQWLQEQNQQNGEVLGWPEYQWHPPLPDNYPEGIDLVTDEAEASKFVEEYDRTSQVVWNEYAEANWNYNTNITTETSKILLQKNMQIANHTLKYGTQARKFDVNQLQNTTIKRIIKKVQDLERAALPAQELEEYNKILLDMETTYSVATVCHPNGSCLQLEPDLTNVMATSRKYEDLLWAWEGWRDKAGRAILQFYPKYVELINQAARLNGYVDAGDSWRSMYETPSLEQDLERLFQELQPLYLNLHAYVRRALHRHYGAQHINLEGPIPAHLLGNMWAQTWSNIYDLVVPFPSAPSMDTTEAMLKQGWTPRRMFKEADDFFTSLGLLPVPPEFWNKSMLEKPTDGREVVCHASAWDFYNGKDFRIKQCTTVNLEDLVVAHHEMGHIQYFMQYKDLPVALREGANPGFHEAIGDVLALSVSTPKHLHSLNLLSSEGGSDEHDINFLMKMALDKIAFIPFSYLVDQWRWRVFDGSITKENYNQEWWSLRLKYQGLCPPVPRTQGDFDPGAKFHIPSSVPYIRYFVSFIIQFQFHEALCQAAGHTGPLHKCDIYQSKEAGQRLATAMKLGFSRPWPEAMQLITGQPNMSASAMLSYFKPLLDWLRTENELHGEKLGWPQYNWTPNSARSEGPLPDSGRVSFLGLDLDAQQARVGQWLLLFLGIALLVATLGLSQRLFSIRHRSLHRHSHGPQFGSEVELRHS
Neprilysin, sequence (P08473 whole entry): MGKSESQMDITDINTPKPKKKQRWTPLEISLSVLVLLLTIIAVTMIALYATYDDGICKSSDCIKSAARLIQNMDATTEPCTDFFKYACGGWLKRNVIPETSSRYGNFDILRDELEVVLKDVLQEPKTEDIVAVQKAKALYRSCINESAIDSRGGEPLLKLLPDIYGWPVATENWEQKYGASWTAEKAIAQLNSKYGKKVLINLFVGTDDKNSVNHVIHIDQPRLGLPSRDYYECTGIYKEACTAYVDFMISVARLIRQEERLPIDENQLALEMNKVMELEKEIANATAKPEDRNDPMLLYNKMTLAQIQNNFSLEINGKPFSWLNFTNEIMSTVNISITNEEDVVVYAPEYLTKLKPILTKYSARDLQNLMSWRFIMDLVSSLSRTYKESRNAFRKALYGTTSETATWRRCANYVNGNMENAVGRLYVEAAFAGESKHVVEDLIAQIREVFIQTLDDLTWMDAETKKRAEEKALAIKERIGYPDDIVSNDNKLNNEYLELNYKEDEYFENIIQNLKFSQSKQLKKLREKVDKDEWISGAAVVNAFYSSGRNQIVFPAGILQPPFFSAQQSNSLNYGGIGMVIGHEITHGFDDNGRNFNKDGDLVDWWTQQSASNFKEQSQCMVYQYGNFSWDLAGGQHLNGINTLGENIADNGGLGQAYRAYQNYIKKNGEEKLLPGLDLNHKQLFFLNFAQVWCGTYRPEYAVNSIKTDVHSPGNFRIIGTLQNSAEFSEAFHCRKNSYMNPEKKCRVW

SMILES	IC50 [1]	IC50 (Neprilysin) [nM]	clearance [2] [mL/min/kg]	half-life [3] [min]	bioavailability [4] [%]
CCC[C@H](NC1(C(=O)N[C@@H](Cc2nc(CC)co2)C(=O)O)CCCC1)C(=O)O	130 nM	22	–	–	–
CCC[C@H](NC1(C(=O)N[C@@H](Cc2ncc(-c3ccccc3)o2)C(=O)O)CCCC1)C(=O)O	82 nM	–	–	–	–
COCC[C@H](NC1(C(=O)N[C@@H](Cc2nc(-c3ccccc3)co2)C(=O)O)CCCC1)C(=O)O	130 nM	–	–	–	–
COCC[C@H](NC1(C(=O)N[C@@H](Cc2ncc(-c3ccccc3)o2)C(=O)O)CCCC1)C(=O)O	270 nM	–	4.8	126	1.7
COCC[C@H](NC1(C(=O)N[C@@H](Cc2nc(C)c(-c3ccccc3)o2)C(=O)O)CCCC1)C(=O)O	210 nM	–	–	–	–
COCC[C@H](NC1(C(=O)N[C@@H](Cc2ncc(-c3ccc(Cl)cc3)o2)C(=O)O)CCCC1)C(=O)O	195 nM	0.3	–	–	–
COCC[C@H](NC1(C(=O)N[C@@H](Cc2nnc(-c3ccccc3)o2)C(=O)O)CCCC1)C(=O)O	> 3000 nM	6	–	–	–
COCCOC[C@H](CC1(C(=O)N[C@H]2CC[C@@H](C(=O)O)CC2)CCCC1)C(=O)O [CANDOXATRILAT]	Not Active	7.8	–	–	–

More lines, now with the values ahead:

IC50 [1]	IC50 (Neprilysin) [nM]	clearance [2] [mL/min/kg]	half-life [3] [min]	bioavailability [4] [%]	SMILES
1.5 nM	28	–	–	–	CC(C)CC[C@H](N[C@@H](CCc1ccccc1)C(=O)O)C(=O)N[C@@H](Cc1ccc(-c2ccccc2)cc1)C(=O)O
75 nM	20	–	–	–	CCC[C@H](NC1(C(=O)N[C@@H](Cc2nc(CC(C)C)co2)C(=O)O)CCCC1)C(=O)O
25 nM	–	–	–	–	CCC[C@H](NC1(C(=O)N[C@@H](Cc2nc(-c3ccccc3)co2)C(=O)O)CCCC1)C(=O)O
58 nM	1.9	–	–	–	COCC[C@H](NC1(C(=O)N[C@@H](Cc2nc(-c3ccccc3)no2)C(=O)O)CCCC1)C(=O)O
3.4 nM	0.6	–	–	–	CS(=O)(=O)N[C@@H](CCCCN)C(=O)NC[C@H](CC1(C(=O)N[C@@H](Cc2ccc(O)cc2)C(=O)O)CCCC1)C(=O)O [SAMPATRILAT]
